Assay results from publication PMC8995034 (Science Translational Medicine, 2022).
Several values for one entry are separate records, joined by “and”; a condition that tells them apart may be missing. Equal values may be shown once. Read-outs that look alike come from different tables or passages of the source.

Experiments:
[1] = tested on: SARS-CoV-2 nLUC; experiment: microbe, parasite or virus in culture; format: cell-based; settings: for inhibition at 0.00152 µM: drug 0.00152 µM; for inhibition at 0.00457 µM: drug 0.00457 µM; for inhibition at 0.01372 µM: drug 0.01372 µM; for inhibition at 0.04115 µM: drug 0.04115 µM; for inhibition at 0.37037 µM: drug 0.37037 µM; for inhibition at 3.33333 µM: drug 3.33333 µM; for Relative Light Units (RLU) (FigS1A): replicate wells
[2] = in vitro; settings: human, % Cytotoxicity (Fig1E)
[3] = tested on: SARS-CoV-2 fLUC; experiment: microbe, parasite or virus in culture; format: cell-based; settings: for EC50: Severe acute respiratory syndrome coronavirus 2, NHBE, 24 h, read-out: EC50, inhibition of SARS-CoV-2 replication in NHBE cultures; for % Inhibition (Fig1F): duplicate values; for Relative Light Units (RLU) (FigS1C): duplicates
[4] = tested on: MERS-CoV; experiment: microbe, parasite or virus in culture; format: cell-based; settings: Middle East respiratory syndrome-related coronavirus, Calu-3 2B4, read-out: EC50 against MERS-CoV
[5] = in vivo; settings: BALB/c, mouse, po, 20 mg/kg
[6] = in vivo; cited from earlier work
[7] = tested on: SARS-CoV-2; format: cell-based
[8] = African green monkeys; cited from earlier work
[9] = tested on: alpha, beta, and gamma SARS-CoV-2 VOCs; settings: cited from earlier work
[10] = Severe acute respiratory syndrome coronavirus 2, read-out: % Inhibition (Fig1D)
[11] = Severe acute respiratory syndrome coronavirus 2, drug 10 µM, read-out: % Inhibition (Fig1D)
[12] = Severe acute respiratory syndrome coronavirus 2, read-out: Average EC50 (nM) A549-hACE2
[13] = Severe acute respiratory syndrome coronavirus 2, read-out: average half-maximum effective concentration (EC50), SARS-CoV-2 nLUC replication
[14] = concentration 0.222222 (unit not given)
[15] = concentration 0.666667 (unit not given)
[16] = concentration 2 (unit not given)

SMILES: N#C[C@@]1(c2ccc3c(N)ncnn23)O[C@H](CO)[C@@H](O)[C@H]1O [GS-441524, reference compound]
- inhibition at 0.00152 µM [1, 10]: 5.76%
- inhibition at 0.00457 µM [1, 10]: 7.88%
- inhibition at 0.01372 µM [1, 10]: 0.08%
- inhibition at 0.04115 µM [1, 10]: 5.14%
- inhibition at 0.37037 µM [1, 10]: -4.48%
- inhibition at 3.33333 µM [1, 10]: 42%
- inhibition at 10 µM [1, 11]: 99%
- EC50 [1, 12]: 3370 nM
- EC50 [1, 13]: 3400 nM
- cytotoxicity ([2]; drug 0.00152 µM): 4.91%
- cytotoxicity ([2]; drug 0.00457 µM): 3.11%
- cytotoxicity ([2]; drug 0.01372 µM): 6.91%
- cytotoxicity ([2]; drug 0.04115 µM): 2.96%
- cytotoxicity ([2]; drug 0.12346 µM): 5.66%
- cytotoxicity ([2]; drug 0.37037 µM): 7.63%
- cytotoxicity ([2]; drug 3.33333 µM): 9.21%
- cytotoxicity ([2]; drug 10 µM): 7.34%
- EC50 [3]: 2450 nM
- % Inhibition (Fig1F) ([3]; concentration 0.205761 (unit not given)): 16.6269% and 13.9332%
- % Inhibition (Fig1F) ([3]; concentration 0.617284 (unit not given)): 25.1934% and 32.3249%
- % Inhibition (Fig1F) ([3]; concentration 1.85185 (unit not given)): 47.2673% and 45.1609%
- % Inhibition (Fig1F) ([3]; concentration 5.55556 (unit not given)): 89.9387% and 91.061%
- % Inhibition (Fig1F) ([3]; concentration 16.6667 (unit not given)): 99.9354% and 99.9435%
- % Inhibition (Fig1F) ([3]; concentration 50 (unit not given)): 99.9909% and 99.9933%
- EC50 [4]: 2100 nM
- half-life [5]: ~1 h

SMILES: CC(C)C(=O)OCC1OC(C#N)(c2ccc3c(N)ncnn23)C(OC(=O)C(C)C)C1OC(=O)C(C)C (centres unmarked) [GS-621763]
- inhibition at 0.00152 µM [1, 10]: -15.2%
- inhibition at 0.00457 µM [1, 10]: -13.7%
- inhibition at 0.01372 µM [1, 10]: -12.3%
- inhibition at 0.04115 µM [1, 10]: -15.7%
- inhibition at 0.12346 µM ([1]; Severe acute respiratory syndrome coronavirus 2, drug 0.12346 µM, read-out: % Inhibition (Fig1D)): -15.4%
- inhibition at 0.37037 µM [1, 10]: -23%
- inhibition at 1.11111 µM ([1]; Severe acute respiratory syndrome coronavirus 2, drug 1.11111 µM, read-out: % Inhibition (Fig1D)): -42%
- inhibition at 3.33333 µM [1, 10]: 94.8%
- inhibition at 10 µM [1, 11]: 99.3%
- EC50 [1, 12]: 2800 nM
- EC50 [1, 13]: 2800 nM
- Relative Light Units (RLU) (FigS1A) ([1]; drug 0.004 µM): 1.49E+08 RLU and 1.35E+08 RLU and 1.13E+08 RLU
- Relative Light Units (RLU) (FigS1A) ([1]; drug 0.04 µM): 1.45E+08 RLU and 1.37E+08 RLU and 1.12E+08 RLU
- Relative Light Units (RLU) (FigS1A) ([1]; drug 0.12 µM): 1.47E+08 RLU and 1.37E+08 RLU and 1.32E+08 RLU
- Relative Light Units (RLU) (FigS1A) ([1]; drug 0.37 µM): 1.64E+08 RLU and 1.46E+08 RLU and 1.36E+08 RLU
- Relative Light Units (RLU) (FigS1A) ([1]; drug 1.1 µM): 1.69E+08 RLU and 1.76E+08 RLU and 1.62E+08 RLU
- Relative Light Units (RLU) (FigS1A) ([1]; drug 3.3 µM): 6190000 RLU and 6040000 RLU and 1.36E+07 RLU
- Relative Light Units (RLU) (FigS1A) ([1]; drug 10 µM): 708000 RLU and 801000 RLU and 866000 RLU
- cytotoxicity ([2]; drug 0.00152 µM): 5.08%
- cytotoxicity ([2]; drug 0.00457 µM): 2.88%
- cytotoxicity ([2]; drug 0.01372 µM): 4.34%
- cytotoxicity ([2]; drug 0.04115 µM): 5.67%
- cytotoxicity ([2]; drug 0.12346 µM): 6.43%
- cytotoxicity ([2]; drug 0.37037 µM): 7.02%
- cytotoxicity ([2]; drug 1.11111 µM): -1.19%
- cytotoxicity ([2]; drug 3.33333 µM): 1.11%
- cytotoxicity ([2]; drug 10 µM): 4.64%
- EC50 [3]: 125 nM
- % Inhibition (Fig1F) [3, 14]: 65.5149% and 78.3611%
- % Inhibition (Fig1F) [3, 15]: 97.4321% and 98.0439%
- % Inhibition (Fig1F) [3, 16]: 99.8762% and 99.9108%
- Relative Light Units (RLU) (FigS1C) ([3]; drug concentration 0.00823): 7706513 RLU and 5857613 RLU
- Relative Light Units (RLU) (FigS1C) ([3]; drug concentration 0.024691): 7329653 RLU and 5548473 RLU
- Relative Light Units (RLU) (FigS1C) ([3]; drug concentration 0.074074): 5615903 RLU and 3756783 RLU
- Relative Light Units (RLU) (FigS1C) ([3]; drug concentration 0.222222): 2451403 RLU and 1538223 RLU
- Relative Light Units (RLU) (FigS1C) ([3]; drug concentration 0.666667): 182543 RLU and 139053 RLU
- Relative Light Units (RLU) (FigS1C) ([3]; drug concentration 2): 8803.33 RLU and 6343.33 RLU
- intact ester in plasma [6]: no or very minimal intact ester observed in plasma
- antiviral activity / infectious virus titers in HAE cell cultures [7]: confirmed the antiviral activity
- antiviral activity / infectious virus titers in HAE cell cultures ([7]; listed as GS621763): reduces viral titers
- EC50 [4]: 740 nM
- intact ester in plasma [8]: no or very minimal intact ester observed in plasma
- antiviral activity against alpha, beta, and gamma SARS-CoV-2 VOCs [9]: potently antiviral

SMILES: CC(C)C(=O)OC[C@H]1O[C@@H](n2ccc(NO)nc2=O)[C@H](O)[C@@H]1O [MPV, molnupiravir, reference compound]
- NHC plasma exposures, dose proportionality (MPV 30 mg/kg or 100 mg/kg oral, BID): dose proportional increases in NHC plasma exposures

SMILES: O=c1nc(NO)ccn1[C@@H]1O[C@H](CO)[C@@H](O)[C@H]1O [NHC]
- Plasma NHC, FigS5 (Group 1, time 12.5, individual mice, oral MPV): 48.2 μM and 56.9 μM (2×) and 55.4 μM

SMILES: CCC(CC)COC(=O)C(C)NP(=O)(OCC1OC(C#N)(c2ccc3c(N)ncnn23)C(O)C1O)Oc1ccccc1 (centres unmarked) [RDV (GS-5734)]
- % Inhibition (Fig1F) ([3]; concentration 0.024691 (unit not given)): 24.385% and 40.4776%
- % Inhibition (Fig1F) ([3]; concentration 0.074074 (unit not given)): 79.3894% and 81.2356%
- % Inhibition (Fig1F) [3, 14]: 99.4779% and 99.6549%
- % Inhibition (Fig1F) [3, 15]: 99.9727% and 99.9783%
- % Inhibition (Fig1F) [3, 16]: 99.9953% and 99.9938%

SMILES: CCC(CC)COC(=O)[C@H](C)N[P@](=O)(OC[C@H]1O[C@@](C#N)(c2ccc3c(N)ncnn23)[C@H](O)[C@@H]1O)Oc1ccccc1 [RDV, remdesivir, reference compound]
- EC50 [1, 12]: 294 nM
- EC50 [1, 13]: 290 nM
- EC50 [3]: 37.1 nM
- EC50 [4]: 160 nM
